Laboratory results reported in US8802597B2, “Herbicidal pyrimidines” (E I du Pont de Nemours and Company, priority 2003, dated 2014).

Columns and labels:
Assay type in all cases: in vivo
[1] = test system: barnyardgrass (Echinochloa crus-galli); test: Test B pre/postemergence
Source text: (§1) Seeds selected from barnyardgrass (Echinochloa crus-galli), Surinam grass (Brachiaria decumbens), cocklebur (Xanthium strumarium), corn (Zea mays), crabgrass (Digitaria sanguinalis), giant foxtail (Setaria faberii), lambsquarters (Chenopodium album), morningglory (Ipomoea coccinea), pigweed (Amaranthus retroflexus), velvetleaf (Abutilon theophrasti), and wheat (Triticum aestivum) were planted and treated preemergence with test chemicals formulated in a non-phytotoxic solvent mixture which included a surfactant.
(§2) At the same time, plants selected from these crop and weed species and also blackgrass (Alopecurus myosuroides) and wild oat (Avena fatua) were treated with postemergence applications of test chemicals formulated in the same manner. Plants ranged in height from 2 to 18 cm (1- to 4-leaf stage) for postemergence treatments. Plant species in the flooded paddy test consisted of rice (Oryza sativa), umbrella sedge (Cyperus difformis), duck salad (Heteranthera limosa) and barnyardgrass (Echinochloa crus-galli) grown to the 2-leaf stage for testing. Treated plants and controls were maintained in a greenhouse for 13 to 15 days, after which time all species were compared to controls and visually evaluated. Plant response ratings, summarized in Table B, are based on a scale of 0 to 100 where 0 is no effect and 100 is complete control. A dash (-) response means no test result.

[2] = test system: corn (Zea mays); test: Test B pre/postemergence
Source text: as §1, §2

[3] = test system: giant foxtail (Setaria faberii); test: Test B pre/postemergence
Source text: as §1, §2

[4] = test system: lambsquarters (Chenopodium album); test: Test B pre/postemergence
Source text: as §1, §2

[5] = test system: pigweed (Amaranthus retroflexus); test: Test B pre/postemergence
Source text: as §1, §2

[6] = test system: velvetleaf (Abutilon theophrasti); test: Test B pre/postemergence
Source text: as §1, §2

[7] = test system: wheat (Triticum aestivum); test: Test B pre/postemergence
Source text: as §1, §2

[8] = test system: crabgrass (Digitaria sanguinalis); test: Test B pre/postemergence
Source text: as §1, §2

[9] = test system: cocklebur (Xanthium strumarium); test: Test B pre/postemergence
Source text: as §1, §2

[10] = test system: Surinam grass (Brachiaria decumbens); test: Test B pre/postemergence
Source text: as §1, §2

[11] = test system: morningglory (Ipomoea coccinea); test: Test B pre/postemergence
Source text: as §1, §2

[12] = test system: barnyardgrass (Echinochloa crus-galli); test: Test B flooded paddy test; settings: Flood, 1000 g ai/ha; scale 0 (no effect) to 100 (complete control)
Method: as §2

[13] = test system: duck salad (Heteranthera limosa); test: Test B flooded paddy test; settings: Flood, 1000 g ai/ha; scale 0 to 100
Method: as §2

[14] = test system: rice (Oryza sativa); test: Test B flooded paddy test; settings: Flood, 1000 g ai/ha; scale 0 to 100
Method: as §2

[15] = test system: umbrella sedge (Cyperus difformis); test: Test B flooded paddy test; settings: Flood, 1000 g ai/ha; scale 0 to 100
Method: as §2

[16] = test system: blackgrass (Alopecurus myosuroides); test: Test B postemergence; settings: for Blackgrass plant response rating: scale 0 to 100 (0 no effect, 100 complete control); for Plant response rating, Blackgrass: scale 0 to 100
Method in brief: (§3)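 Plants treated pre- or postemergence were compared visually with controls after 13 to 15 days. Ratings ran from 0, no effect, to 100, complete control.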

[17] = test system: wild oat (Avena fatua); test: Test B postemergence; settings: for Oat, Wild plant response rating: scale 0 to 100 (0 no effect, 100 complete control); for Plant response rating, Oat, Wild: scale 0 to 100
Method in brief: as §3

[18] = Postemergence, 125 g ai/ha, scale 0 to 100 (0 no effect, 100 complete control)
[19] = Postemergence, 500 g ai/ha, scale 0 to 100
[20] = Preemergence, 125 g ai/ha, scale 0 to 100 (0 no effect, 100 complete control)
[21] = Preemergence, 500 g ai/ha, scale 0 to 100 (0 no effect, 100 complete control)
[22] = Postemergence, 62 g ai/ha, scale 0 to 100 (0 no effect, 100 complete control)
[23] = Postemergence, 250 g ai/ha, scale 0 to 100
[24] = Preemergence, 62 g ai/ha, scale 0 to 100, 0 no effect, 100 complete control
[25] = Preemergence, 250 g ai/ha, scale 0 to 100 (0 no effect, 100 complete control)

SMILES: CCOC(=O)Cc1nc(-c2ccc(Cl)cc2)nc(N)c1Br [Compound 41]
- Barnyardgrass plant response rating [1, 18]: 20
- Plant response rating, Barnyardgrass [1, 19]: 70
- Plant response rating, Barnyardgrass [1, 20]: 0
- Barnyardgrass plant response rating [1, 21]: 10
- Corn plant response rating [2, 18]: 20
- Plant response rating, Corn [2, 19]: 80
- Plant response rating, Corn [2, 20]: 0
- Corn plant response rating [2, 21]: 0
- Foxtail, Giant plant response rating [3, 18]: 20
- Plant response rating, Foxtail, Giant [3, 19]: 30
- Plant response rating, Foxtail, Giant [3, 20]: 0
- Foxtail, Giant plant response rating [3, 21]: 0
- Lambsquarters plant response rating [4, 18]: 80
- Plant response rating, Lambsquarters [4, 19]: 90
- Plant response rating, Lambsquarters [4, 20]: 30
- Lambsquarters plant response rating [4, 21]: 60
- Pigweed plant response rating [5, 18]: 70
- Plant response rating, Pigweed [5, 19]: 90
- Plant response rating, Pigweed [5, 20]: 0
- Pigweed plant response rating [5, 21]: 60
- Velvetleaf plant response rating [6, 18]: 50
- Plant response rating, Velvetleaf [6, 19]: 70
- Plant response rating, Velvetleaf [6, 20]: 10
- Velvetleaf plant response rating [6, 21]: 30
- Wheat plant response rating [7, 18]: 30
- Plant response rating, Wheat [7, 19]: 40
- Plant response rating, Wheat [7, 20]: 0
- Plant response rating, Wheat [7, 21]: 20
- Crabgrass plant response rating [8, 18]: 10
- Plant response rating, Crabgrass [8, 19]: 20
- Plant response rating, Crabgrass [8, 20]: 0
- Crabgrass plant response rating [8, 21]: 20
- Cocklebur plant response rating [9, 18]: 70
- Plant response rating, Cocklebur [9, 20]: 0
- Cocklebur plant response rating [9, 21]: 10
- Surinam Grass plant response rating [10, 18]: 0
- Plant response rating, Surinam Grass [10, 19]: 10
- Surinam Grass plant response rating [10, 21]: 0
- Morningglory plant response rating [11, 18]: 70
- Plant response rating, Morningglory [11, 19]: 90
- Plant response rating, Morningglory [11, 20]: 0
- Morningglory plant response rating [11, 21]: 20
- Plant response rating, Barnyardgrass [12]: 0
- Plant response rating, Ducksalad [13]: 90
- Plant response rating, Rice [14]: 0
- Plant response rating, Sedge, Umbrella [15]: 80
- Blackgrass plant response rating ([16]; 125 g ai/ha): 20
- Plant response rating, Blackgrass ([16]; 500 g ai/ha): 60
- Oat, Wild plant response rating ([17]; 125 g ai/ha): 0
- Plant response rating, Oat, Wild ([17]; 500 g ai/ha): 0

SMILES: CCOC(OCC)c1nc(C2CC2)nc(N)c1Br [Compound 45]
- Barnyardgrass plant response rating [1, 22]: 0
- Plant response rating, Barnyardgrass [1, 23]: 0
- Plant response rating, Barnyardgrass [1, 24]: 0
- Plant response rating, Barnyardgrass [1, 25]: 0
- Corn plant response rating [2, 22]: 0
- Plant response rating, Corn [2, 23]: 0
- Plant response rating, Corn [2, 24]: 0
- Foxtail, Giant plant response rating [3, 22]: 0
- Plant response rating, Foxtail, Giant [3, 23]: 0
- Plant response rating, Foxtail, Giant [3, 24]: 0
- Plant response rating, Foxtail, Giant [3, 25]: 0
- Lambsquarters plant response rating [4, 22]: 10
- Plant response rating, Lambsquarters [4, 23]: 30
- Plant response rating, Lambsquarters [4, 24]: 0
- Plant response rating, Lambsquarters [4, 25]: 30
- Pigweed plant response rating [5, 22]: 30
- Plant response rating, Pigweed [5, 23]: 50
- Plant response rating, Pigweed [5, 24]: 0
- Plant response rating, Pigweed [5, 25]: 50
- Velvetleaf plant response rating [6, 22]: 0
- Plant response rating, Velvetleaf [6, 23]: 20
- Plant response rating, Velvetleaf [6, 24]: 0
- Plant response rating, Velvetleaf [6, 25]: 0
- Wheat plant response rating [7, 22]: 0
- Plant response rating, Wheat [7, 23]: 0
- Plant response rating, Wheat [7, 24]: 0
- Plant response rating, Wheat [7, 25]: 0
- Crabgrass plant response rating [8, 22]: 0
- Plant response rating, Crabgrass [8, 23]: 20
- Plant response rating, Crabgrass [8, 24]: 0
- Plant response rating, Crabgrass [8, 25]: 0
- Cocklebur plant response rating [9, 22]: 0
- Plant response rating, Cocklebur [9, 23]: 10
- Plant response rating, Cocklebur [9, 25]: 0
- Surinam Grass plant response rating [10, 22]: 0
- Plant response rating, Surinam Grass [10, 23]: 0
- Plant response rating, Surinam Grass [10, 24]: 0
- Plant response rating, Surinam Grass [10, 25]: 0
- Morningglory plant response rating [11, 22]: 40
- Plant response rating, Morningglory [11, 23]: 60
- Plant response rating, Morningglory [11, 24]: 30
- Plant response rating, Morningglory [11, 25]: 50
- Plant response rating, Barnyardgrass [12]: 0
- Plant response rating, Ducksalad [13]: 0
- Plant response rating, Rice [14]: 0
- Plant response rating, Sedge, Umbrella [15]: 0
- Blackgrass plant response rating ([16]; 62 g ai/ha): 0
- Plant response rating, Blackgrass ([16]; 250 g ai/ha): 0
- Oat, Wild plant response rating ([17]; 62 g ai/ha): 0
- Plant response rating, Oat, Wild ([17]; 250 g ai/ha): 0

SMILES: COC(OC)c1nc(C2CC2)nc(N)c1F [Compound 46]
- Barnyardgrass plant response rating [1, 18]: 0
- Plant response rating, Barnyardgrass [1, 19]: 30
- Plant response rating, Barnyardgrass [1, 20]: 0
- Barnyardgrass plant response rating [1, 21]: 0
- Corn plant response rating [2, 18]: 0
- Plant response rating, Corn [2, 19]: 0
- Plant response rating, Corn [2, 20]: 0
- Corn plant response rating [2, 21]: 0
- Foxtail, Giant plant response rating [3, 18]: 0
- Plant response rating, Foxtail, Giant [3, 19]: 10
- Plant response rating, Foxtail, Giant [3, 20]: 0
- Foxtail, Giant plant response rating [3, 21]: 50
- Lambsquarters plant response rating [4, 18]: 10
- Plant response rating, Lambsquarters [4, 19]: 30
- Plant response rating, Lambsquarters [4, 20]: 10
- Lambsquarters plant response rating [4, 21]: 60
- Pigweed plant response rating [5, 18]: 70
- Plant response rating, Pigweed [5, 19]: 80
- Plant response rating, Pigweed [5, 20]: 80
- Pigweed plant response rating [5, 21]: 90
- Velvetleaf plant response rating [6, 18]: 0
- Plant response rating, Velvetleaf [6, 19]: 0
- Plant response rating, Velvetleaf [6, 20]: 0
- Velvetleaf plant response rating [6, 21]: 20
- Wheat plant response rating [7, 18]: 0
- Plant response rating, Wheat [7, 19]: 0
- Plant response rating, Wheat [7, 20]: 0
- Plant response rating, Wheat [7, 21]: 20
- Crabgrass plant response rating [8, 18]: 10
- Plant response rating, Crabgrass [8, 19]: 30
- Plant response rating, Crabgrass [8, 20]: 0
- Crabgrass plant response rating [8, 21]: 40
- Cocklebur plant response rating [9, 18]: 0
- Plant response rating, Cocklebur [9, 19]: 0
- Plant response rating, Cocklebur [9, 20]: 0
- Cocklebur plant response rating [9, 21]: 40
- Surinam Grass plant response rating [10, 18]: 0
- Plant response rating, Surinam Grass [10, 19]: 10
- Plant response rating, Surinam Grass [10, 20]: 0
- Surinam Grass plant response rating [10, 21]: 40
- Morningglory plant response rating [11, 18]: 80
- Plant response rating, Morningglory [11, 19]: 90
- Plant response rating, Morningglory [11, 20]: 50
- Morningglory plant response rating [11, 21]: 90
- Plant response rating, Barnyardgrass [12]: 0
- Plant response rating, Ducksalad [13]: 60
- Plant response rating, Rice [14]: 0
- Plant response rating, Sedge, Umbrella [15]: 30
- Blackgrass plant response rating ([16]; 125 g ai/ha): 0
- Plant response rating, Blackgrass ([16]; 500 g ai/ha): 10
- Oat, Wild plant response rating ([17]; 125 g ai/ha): 0
- Plant response rating, Oat, Wild ([17]; 500 g ai/ha): 0
